The results in this text go back to ChEMBL document CHEMBL1148890, “Design, synthesis, and structure-activity relationship of carbamate-tethered aryl propanoic acids as novel PPARalpha/gamma dual agonists” (Bioorg Med Chem Lett, 2007).

The target in experiment [1] is T1, Peroxisome proliferator-activated receptor gamma (Homo sapiens, UniProt P37231).
T1 sequence (P37231 whole entry): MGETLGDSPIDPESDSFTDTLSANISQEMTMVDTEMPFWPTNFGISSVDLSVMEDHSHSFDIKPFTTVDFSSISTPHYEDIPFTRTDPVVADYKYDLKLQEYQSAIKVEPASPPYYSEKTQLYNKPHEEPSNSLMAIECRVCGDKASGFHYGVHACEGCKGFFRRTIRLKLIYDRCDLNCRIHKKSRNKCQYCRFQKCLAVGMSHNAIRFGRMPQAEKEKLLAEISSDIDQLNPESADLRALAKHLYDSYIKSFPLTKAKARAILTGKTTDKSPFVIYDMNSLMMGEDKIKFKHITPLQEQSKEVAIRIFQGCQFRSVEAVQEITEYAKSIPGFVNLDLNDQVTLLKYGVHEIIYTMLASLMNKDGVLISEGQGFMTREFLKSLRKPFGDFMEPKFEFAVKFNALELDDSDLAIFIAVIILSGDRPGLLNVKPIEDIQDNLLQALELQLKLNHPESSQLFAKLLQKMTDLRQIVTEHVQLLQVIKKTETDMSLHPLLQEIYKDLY
Description: Agonist activity at human PPARgamma in CV1 cells by GAL4 transactivation assay after 24 hrs

Experiment [2] deals with T2, Peroxisome proliferator-activated receptor alpha (Homo sapiens, UniProt Q07869).
T2 sequence (Q07869 whole entry): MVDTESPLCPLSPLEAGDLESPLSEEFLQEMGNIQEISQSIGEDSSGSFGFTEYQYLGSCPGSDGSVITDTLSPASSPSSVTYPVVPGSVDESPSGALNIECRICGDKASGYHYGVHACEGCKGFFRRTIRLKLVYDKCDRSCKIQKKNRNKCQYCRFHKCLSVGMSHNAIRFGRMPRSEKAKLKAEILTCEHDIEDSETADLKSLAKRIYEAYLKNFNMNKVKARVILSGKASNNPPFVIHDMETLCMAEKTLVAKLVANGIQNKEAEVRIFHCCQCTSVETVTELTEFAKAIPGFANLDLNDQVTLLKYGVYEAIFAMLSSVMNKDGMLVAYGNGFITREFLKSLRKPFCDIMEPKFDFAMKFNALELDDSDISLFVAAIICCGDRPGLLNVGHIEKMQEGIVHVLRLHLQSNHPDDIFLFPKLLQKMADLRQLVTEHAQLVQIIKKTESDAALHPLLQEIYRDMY
Description: Agonist activity at human PPARalpha in CV1 cells by GAL4 transactivation assay after 24 hrs

For `CCO[C@@H](Cc1ccc(CCCOC(=S)NCc2ccccc2)cc1)C(=O)O`, the values for the concentration giving a half-maximal response (EC50) in experiment [1] and in experiment [2] were 1.4 µM and 1.47 µM, respectively.
Taken in the same sequence, the figures for `CCO[C@@H](Cc1ccc(OCC(OC(=S)NCc2ccccc2)c2ccccc2)cc1)C(=O)O` (some centres undefined) were 7.17 µM and 6.21 µM.
The corresponding values for `CCO[C@@H](Cc1ccc(CCC(OC(=S)NCCc2ccccc2)c2ccccc2)cc1)C(=O)O` (some centres undefined) are 0.49 µM and 0.88 µM.
The corresponding values for `CCNC(=S)OC(CCc1ccc(C[C@H](OCC)C(=O)O)cc1)c1ccccc1` (some centres undefined) are 5.39 µM and 20.4 µM.
Take `CCO[C@@H](Cc1ccc(CCC(OC(=S)NCc2ccccc2)c2ccccc2)cc1)C(=O)O` (some centres undefined): a half-maximal effect in experiment [1] (EC50) was put at 0.58 µM.
For `CCO[C@H](Cc1ccc(CCC(OC(=S)NCCc2ccccc2)c2ccccc2)cc1)C(=O)O` (some centres undefined), the EC50 in experiment [1] was determined as 1.05 µM; in experiment [2], 2.77 µM.
Taken in the same sequence, the figures for `CCCCNC(=S)OC(CCc1ccc(C[C@H](OCC)C(=O)O)cc1)c1ccccc1` (some centres undefined) were 3.6 µM and 7.26 µM.
`CCO[C@@H](Cc1ccc(CCC(OC(=S)NCC2CCCCC2)c2ccccc2)cc1)C(=O)O` (some centres undefined): the EC50 in experiment [1] is 1.06 µM; in experiment [2] it was 10.7 µM.
Taken in the same sequence, the figures for `CCO[C@@H](Cc1ccc(CCC(OC(=O)NCc2ccccc2)c2ccccc2)cc1)C(=O)O` (some centres undefined) were 1.42 µM and 6.05 µM.
The corresponding values for `CCO[C@H](Cc1ccc(CCC(OC(=S)NCc2ccc(C(C)(C)C)cc2)c2ccccc2)cc1)C(=O)O` (some centres undefined) are 0.14 µM and 0.38 µM.
`CCO[C@H](Cc1ccc(CCC(OC(=S)NCc2ccccc2)c2ccccc2)cc1)C(=O)O` (some centres undefined): the EC50 in experiment [1] is 0.35 µM.
Turning to `CCO[C@@H](Cc1ccc(CCC(O)c2ccccc2)cc1)C(=O)O` (some centres undefined), the EC50 in experiment [1] came to 0.3 µM; in experiment [2], 1.51 µM.
The corresponding values for `CCO[C@@H](Cc1ccc(CCC(OC(=S)NCc2ccc(C(C)(C)C)cc2)c2ccccc2)cc1)C(=O)O` (some centres undefined) are 0.16 µM and 3.27 µM.
Take `CCO[C@@H](Cc1ccc(CCC(OC(=S)Nc2ccccc2)c2ccccc2)cc1)C(=O)O` (some centres undefined): the results for the concentration giving a half-maximal response (EC50) in experiment [1] and in experiment [2] were 4.58 µM and 5.25 µM, respectively.
Taken in the same sequence, the figures for `CCCNC(=S)OC(CCc1ccc(C[C@H](OCC)C(=O)O)cc1)c1ccccc1` (some centres undefined) were 3.48 µM and 3.94 µM.
`Cc1ccc(C)c(OCCCC(C)(C)C(=O)O)c1` [GEMFIBROZIL] showed an EC50 in experiment [2] of 193 µM.

One may read the EC50 as the concentration that produces a half-maximal response.
